From paper PMC9964023 (Marine Drugs, 2023)
Entries after “also recorded” stand apart in the source; their conditions may differ. Bridge positions count the residues as written; N and C are the ends. Peptide text beside a SMILES is read from it.

Experiments:
Assay in all cases: biochemical
[1] = molecular target: T1, norepinephrine transporter (NET) (Rattus norvegicus, UniProt Q63380); assay type: biochemical
T1 construct: brains were processed to yield synaptosomes as previously described; from tissue; host or cells: rat whole brain minus caudate and cerebellum, synaptosomes
T1 sequence (Q63380 1-617): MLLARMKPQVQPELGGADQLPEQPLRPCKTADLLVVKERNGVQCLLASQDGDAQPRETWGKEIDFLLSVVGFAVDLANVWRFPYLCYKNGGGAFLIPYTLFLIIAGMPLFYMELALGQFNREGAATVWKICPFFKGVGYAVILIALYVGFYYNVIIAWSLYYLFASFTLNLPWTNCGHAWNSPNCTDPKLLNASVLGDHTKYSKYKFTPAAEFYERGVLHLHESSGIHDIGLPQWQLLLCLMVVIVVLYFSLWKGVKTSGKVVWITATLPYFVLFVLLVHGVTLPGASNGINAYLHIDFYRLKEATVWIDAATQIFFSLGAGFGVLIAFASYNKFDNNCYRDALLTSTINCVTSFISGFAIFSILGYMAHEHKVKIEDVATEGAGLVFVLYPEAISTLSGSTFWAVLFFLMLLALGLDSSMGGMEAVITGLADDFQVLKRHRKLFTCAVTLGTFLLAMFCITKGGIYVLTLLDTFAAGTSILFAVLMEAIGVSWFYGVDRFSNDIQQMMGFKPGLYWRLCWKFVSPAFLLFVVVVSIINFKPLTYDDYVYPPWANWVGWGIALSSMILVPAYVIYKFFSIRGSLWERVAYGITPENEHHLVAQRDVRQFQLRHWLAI

[2] = molecular target: T2, dopamine transporter (DAT) (Rattus norvegicus, UniProt P23977)
T2 construct: brains were processed to yield synaptosomes as previously described; from tissue; host or cells: rat caudate synaptosomes
T2 sequence (P23977 whole entry): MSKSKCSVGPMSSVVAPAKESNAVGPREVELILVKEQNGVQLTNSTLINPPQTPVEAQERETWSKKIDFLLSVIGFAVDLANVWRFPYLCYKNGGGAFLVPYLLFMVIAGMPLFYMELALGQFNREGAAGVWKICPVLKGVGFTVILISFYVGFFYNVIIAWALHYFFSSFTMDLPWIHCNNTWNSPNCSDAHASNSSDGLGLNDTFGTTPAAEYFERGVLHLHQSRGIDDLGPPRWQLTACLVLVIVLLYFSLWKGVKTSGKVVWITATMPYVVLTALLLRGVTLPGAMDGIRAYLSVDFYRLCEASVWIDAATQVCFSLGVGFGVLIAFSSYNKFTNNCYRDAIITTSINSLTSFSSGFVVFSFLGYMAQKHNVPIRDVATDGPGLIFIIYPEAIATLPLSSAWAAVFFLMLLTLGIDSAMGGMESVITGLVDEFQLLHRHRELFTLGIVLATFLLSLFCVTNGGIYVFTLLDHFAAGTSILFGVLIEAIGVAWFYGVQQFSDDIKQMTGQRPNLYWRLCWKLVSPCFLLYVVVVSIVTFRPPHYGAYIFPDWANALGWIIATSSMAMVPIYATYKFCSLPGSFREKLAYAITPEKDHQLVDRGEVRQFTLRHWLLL

[3] = molecular target: T3, serotonin transporter (SERT) (Rattus norvegicus, UniProt P31652)
T3 construct: brains were processed to yield synaptosomes as previously described; from tissue; host or cells: rat whole brain minus caudate and cerebellum, synaptosomes
T3 sequence (P31652 whole entry): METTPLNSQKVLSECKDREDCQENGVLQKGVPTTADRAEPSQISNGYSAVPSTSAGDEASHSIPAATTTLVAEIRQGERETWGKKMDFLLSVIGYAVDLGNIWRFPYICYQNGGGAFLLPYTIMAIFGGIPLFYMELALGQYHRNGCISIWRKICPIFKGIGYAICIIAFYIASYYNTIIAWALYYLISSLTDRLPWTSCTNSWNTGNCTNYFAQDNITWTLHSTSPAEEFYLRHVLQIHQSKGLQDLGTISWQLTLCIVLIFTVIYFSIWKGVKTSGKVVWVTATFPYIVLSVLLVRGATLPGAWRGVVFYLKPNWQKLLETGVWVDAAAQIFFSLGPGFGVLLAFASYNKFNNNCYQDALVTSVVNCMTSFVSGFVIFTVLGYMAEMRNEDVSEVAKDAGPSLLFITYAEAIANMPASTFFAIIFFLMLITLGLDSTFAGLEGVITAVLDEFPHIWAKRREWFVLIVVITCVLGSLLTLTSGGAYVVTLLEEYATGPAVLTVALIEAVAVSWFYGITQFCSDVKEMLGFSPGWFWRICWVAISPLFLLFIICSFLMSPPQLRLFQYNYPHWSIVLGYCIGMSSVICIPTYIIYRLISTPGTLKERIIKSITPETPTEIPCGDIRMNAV

CSCC[C@@H]1NC(=O)[C@H](CCCNC(=N)N)NC(=O)[C@H](Cc2ccc(O)cc2)NC(=O)CNC(=O)[C@@H]2CSSC[C@H](NC1=O)C(=O)N[C@@H](C(C)C)C(=O)N1CCC[C@H]1C(=O)N[C@H](C(N)=O)CSSC[C@H](NC(=O)[C@@H](NC(=O)[C@@H](N)CO)[C@@H](C)O)C(=O)N2 [PnID B] (H-STCCGYRMCVPC-NH2; disulfide 3-12, 4-9)
IC50 [1]: 10 µM

CSCC[C@@H]1NC(=O)[C@H](CCCNC(=N)N)NC(=O)[C@H](Cc2ccc(O)cc2)NC(=O)CNC(=O)[C@@H]2CSSC[C@@H](C(N)=O)NC(=O)[C@@H]3CCCN3C(=O)[C@H](C(C)C)NC(=O)[C@H](CSSC[C@H](NC(=O)[C@@H](NC(=O)[C@@H](N)CO)[C@@H](C)O)C(=O)N2)NC1=O [PnID A] (H-STCCGYRMCVPC-NH2; disulfide 3-9, 4-12)
IC50 [1]: > 100 µM | activity at NET relative to ribbon isomer (in words) [1]: more than ten times less activity; also recorded: much less active in inhibiting the rat NET | IC50 [2]: > 100 µM | IC50 [3]: > 100 µM
